One may read the Vd as the apparent volume that relates the amount in the body to the concentration in plasma or blood. By clearance is commonly meant the volume of plasma or blood freed of the substance per unit of time. High values mean efficient removal, low ones inefficient removal. By Cmax is commonly meant the peak of the concentration-time curve. What is called CC50 is the concentration giving 50% cytotoxicity.

Data on five compounds can be found in patent US20220409629A1, “BENZODIAZEPINE DERIVATIVES FOR TREATING A RESPIRATORY SYNCYTIAL VIRUS (RSV) INFECTION” (priority 2019, published 2022).

Data set [1] in a line: Liver hepatocyte stability, dog. It counts as in vitro ADME. Particulars: dog hepatocytes, 3 μM compound, 60 min, >80% remaining at 60 min denoted >186, read-out: Liver Hepatocyte Stability: t1/2 (min).
The nature of data set [2]: Rat pharmacokinetics in vivo. Conditions: male Sprague Dawley rats; for AUC(0-t): read-out: PO AUClast.
Data set [3] is described as follows: Liver microsomal stability, rat. The data set is classed as in vitro ADME. Conditions: pH 7.4; rat liver microsomes, 0.5 mg/mL protein, 1 μM compound, NADPH; >80% remaining at 45 min denoted >140; read-out: Liver Microsomal Stability: t1/2 (min); rat. In a few lines: (§1)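 Pooled liver microsomes (0.5 mg/mL protein) in 0.1 M phosphate pH 7.4 with 1 μM compound (0.25% DMSO), started with 1 mM NADPH at 37° C; sampled 0-45 min, minus-NADPH control 45 min. LC-MS/MS depletion slope gave t1/2 and CLint.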
(Liver microsomes are a subcellular fraction often used to study metabolism.)

A short description of data set [4]: Liver microsomal stability, dog. It counts as in vitro ADME. Particulars: pH 7.4; dog liver microsomes, 0.5 mg/mL protein, 1 μM compound, NADPH; >80% remaining at 45 min denoted >140; read-out: Liver Microsomal Stability: t1/2 (min); dog. An outline of the steps: as §1
Data set [5] in a line: Liver hepatocyte stability, human. It counts as in vitro ADME. Conditions: human hepatocytes, 3 μM compound, 60 min, >80% remaining at 60 min denoted >186, read-out: Liver Hepatocyte Stability: t1/2 (min).
A short description of data set [6]: Liver microsomal stability, human. It counts as in vitro ADME. Particulars: pH 7.4; human liver microsomes, 0.5 mg/mL protein, 1 μM compound, NADPH; >80% remaining at 45 min denoted >140; read-out: Liver Microsomal Stability: t1/2 (min); human. In a few lines:
as §1

Data set [7] in a line: Liver hepatocyte stability, rat. Particulars: rat hepatocytes, 3 μM compound, 60 min, >80% remaining at 60 min denoted >186, read-out: Liver Hepatocyte Stability: t1/2 (min). It counts as in vitro ADME.
Data set [8] is described as follows: Cell cytotoxicity CC50. It counts as cell-based. Particulars: human; mean of at least two experiments.
The mark [9] stands for this setting: 8 h, doses 1 mg/kg (IV) and 10 mg/kg (PO).
Where [10] appears, read: rat, in vivo, IV 1 mg/kg, PO 10 mg/kg.
Where [11] appears, read: rat, in vivo, IV 1 mg/kg, read-out: IV t½ (converted).
[12] abbreviates: rat, in vivo, PO 10 mg/kg, read-out: PO t½ (converted).
The mark [13] stands for this setting: rat, in vivo, doses 1 mg/kg (IV) and 10 mg/kg (PO).

Where only a bound is given, the exact number is not on record here.

With `CC(C)Nc1ccc(-c2c(C(=O)N[C@H]3N=C(c4ccccc4)c4cccc(F)c4NC3=O)cnn2C2CCOCC2)c(F)n1` [Example 22, N-[(3S)-9-fluoro-2-oxo-5-phenyl-1,3-dihydro-1,4-benzodiazepin-3-yl]-5-[2-fluoro-6-(propan-2-ylamino)pyridin-3-yl]-1-(oxan-4-yl)pyrazole-4-carboxamide], the half-life in data set [1] was 90.7 min; in data set [2] (setting [11]), 2.4 h; in data set [2] (setting [12]), 2.6 h; in data set [3], over 140 min; in data set [4], 88.6 min; in data set [5], 207 min. The figures for the half-life in data set [6] and in data set [7] were 287 min and 120 min, respectively. In addition, the “C 8 h” value in data set [2] (setting [9]) was 734 ng/mL. The same compound showed a Vd in data set [2] (rat, in vivo, IV 1 mg/kg) of 1.9 L/kg. The same compound yielded a clearance in data set [2] (rat, in vivo, IV 1 mg/kg) of 10 mL/min/kg. Also, in data set [2] (setting [10]), the bioavailability worked out at 88.3%. Besides, in data set [2] (rat, in vivo, PO 10 mg/kg), the AUC(0-t) was 14900 ng·h/mL. Further, the concentration in data set [2] (setting [13]) peaked (Cmax) at 1440 ng/mL. The compound also returned a CC50 in data set [8] of over 25 µM.

For the compound `CCn1ncc(C(=O)N[C@H]2N=C(c3ccccc3)c3ccccc3NC2=O)c1-c1ccc(NC(C)C)nc1F` [Example 3, 1-Ethyl-5-[2-fluoro-6-(propan-2-ylamino)pyridin-3-yl]-N-[(3S)-2-oxo-5-phenyl-1,3-dihydro-1,4-benzodiazepin-3-yl]pyrazole-4-carboxamide], the half-life at 3 µM in data set [1] was 67.4 min; in data set [5] it was 52.6 min; in data set [7], 73.8 min. Moreover, the concentration at 8 h in data set [2] (rat, in vivo, 8 h, doses 1 mg/kg (IV) and 10 mg/kg (PO), read-out: C 8 h) came out at 108 ng/mL. Moreover, in data set [2] (rat, in vivo, IV 1 mg/kg), the Vd turned out to be 2.4 L/kg. For the same compound, the clearance in data set [2] (rat, in vivo, IV 1 mg/kg) turned out to be 13.3 mL/min/kg. In data set [2] (setting [10]), the bioavailability was 17.1%. The half-life in data set [2] (setting [11]) is 2.2 h; in data set [2] (setting [12]) it was 4.6 h. In data set [2] (rat, in vivo, PO 10 mg/kg), the AUC(0-t) stood at 2070 ng·h/mL. In data set [2] (setting [13]), the maximum concentration (Cmax) was 199 ng/mL. Also, the half-life at 1 µM in data set [3] is 88.8 min; in data set [4], 45.3 min; in data set [6] it was 287 min. Moreover, the CC50 at 2 days in data set [8] is over 25 µM.

Turning to `O=C(N[C@H]1N=C(c2ccccc2)c2cccc(F)c2NC1=O)c1cnn(C2CCOCC2)c1-c1ccc(NC2CC2)nc1F` [Example 21, 5-[6-(Cyclopropylamino)-2-fluoropyridin-3-yl]-N-[(3S)-9-fluoro-2-oxo-5-phenyl-1,3-dihydro-1,4-benzodiazepin-3-yl]-1-(oxan-4-yl)pyrazole-4-carboxamide], the half-life in data set [1] is over 186 min; in data set [2] (setting [11]), 1.7 h; in data set [2] (setting [12]), 3.2 h; in data set [3], 87.6 min; in data set [4], 124 min; in data set [5] it was over 186 min. Also, the half-life in data set [6] came to 170 min; in data set [7], 284 min. Further, the “C 8 h” value in data set [2] (setting [9]) came to 385 ng/mL. Further, the Vd in data set [2] (rat, in vivo, IV 1 mg/kg) came out at 2.1 L/kg. Further, the clearance in data set [2] (rat, in vivo, IV 1 mg/kg) was determined as 18.6 mL/min/kg. Further, the bioavailability in data set [2] (setting [10]) came to 98.2%. Also, in data set [2] (rat, in vivo, PO 10 mg/kg), the AUC(0-t) was found to be 8180 ng·h/mL. Besides, the Cmax in data set [2] (setting [13]) is 1590 ng/mL. In data set [8], the CC50 was over 25 µM.

Take `CCn1ncc(C(=O)N[C@H]2N=C(c3ccccc3)c3ccccc3NC2=O)c1-c1ccc(NC2CC2)nc1F` [Example 4, 1-Ethyl-5-[2-fluoro-6-(cyclopropylamino)pyridin-3-yl]-N-[(3S)-2-oxo-5-phenyl-1,3-dihydro-1,4-benzodiazepin-3-yl]pyrazole-4-carboxamide]: the half-life in data set [1] was 42.1 min; in data set [2] (setting [11]), 1.3 h; in data set [2] (setting [12]) it was 2.2 h; in data set [3] it was 68.5 min; in data set [4], 14.4 min; in data set [5], 53.5 min. In addition, the half-life was 52 min in data set [6] and 47.3 min in data set [7]. The “C 8 h” value in data set [2] (setting [9]) came to 470 ng/mL. The distribution volume (Vd) in data set [2] (rat, in vivo, IV 1 mg/kg) was 2 L/kg. For the same compound, the clearance in data set [2] (rat, in vivo, IV 1 mg/kg) is 22.7 mL/min/kg. In addition, the bioavailability in data set [2] (setting [10]) turned out to be 124%. Also, the AUC(0-t) in data set [2] (rat, in vivo, PO 10 mg/kg) was found to be 9020 ng·h/mL. Moreover, in data set [2] (setting [13]), the peak level (Cmax) was 1340 ng/mL. Moreover, the CC50 in data set [8] was over 25 µM.

As to `CCNc1ccc(-c2c(C(=O)N[C@H]3N=C(c4ccccc4)c4cccc(F)c4NC3=O)cnn2C2CCOCC2)c(F)n1` [Example 24, 5-[6-(Ethylamino)-2-fluoropyridin-3-yl]-N-[(3S)-9-fluoro-2-oxo-5-phenyl-1,3-dihydro-1,4-benzodiazepin-3-yl]-1-(oxan-4-yl)pyrazole-4-carboxamide], the half-life in data set [1] is 139 min; in data set [2] (setting [11]), 1.3 h; in data set [2] (setting [12]), 3.4 h; in data set [3], 484 min; in data set [4] it was 198 min; in data set [5], 162 min. The half-life in data set [6] was over 140 min; in data set [7], 228 min. Moreover, the “C 8 h” value in data set [2] (setting [9]) came out at 182 ng/mL. For the same compound, the Vd in data set [2] (rat, in vivo, IV 1 mg/kg) came to 1.4 L/kg. The same compound had a clearance in data set [2] (rat, in vivo, IV 1 mg/kg) of 15 mL/min/kg. Also, the bioavailability in data set [2] (setting [10]) was 50%. Also, the AUC(0-t) in data set [2] (rat, in vivo, PO 10 mg/kg) is 5540 ng·h/mL. Moreover, in data set [2] (setting [13]), the Cmax was 791 ng/mL. The same compound displayed a CC50 in data set [8] of over 25 µM.
